Measured values taken from patent publication US12295396B2, “Antagonists of T2R54 and compositions and uses thereof” (Firmenich Incorporated, priority 2018, dated 2025).
Where two headings read alike, the source gives them in different places.

Biological target: T1, hT2R54 (Homo sapiens, UniProt P59534)
T1 construct: expressed in transfected cells; it overexpresses a promiscuous G protein
T1 sequence (P59534 1-338): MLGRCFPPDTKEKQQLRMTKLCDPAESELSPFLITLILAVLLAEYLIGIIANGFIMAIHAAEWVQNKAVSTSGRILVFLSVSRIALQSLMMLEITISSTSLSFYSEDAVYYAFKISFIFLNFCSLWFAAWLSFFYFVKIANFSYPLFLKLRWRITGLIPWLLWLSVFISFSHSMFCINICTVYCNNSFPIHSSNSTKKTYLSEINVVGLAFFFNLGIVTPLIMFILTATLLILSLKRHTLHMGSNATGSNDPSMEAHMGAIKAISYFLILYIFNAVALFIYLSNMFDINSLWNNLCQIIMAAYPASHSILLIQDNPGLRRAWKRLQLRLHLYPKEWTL
Assay: Cell-based assay for measuring hT2R54 inhibition (FLIPR calcium, Fluo4AM, acetaminophen as bitter agonist)
Settings: for IC50: read-out: hT2R54 IC50
Description: Cells stably expressing hT2R54 and a promiscuous G protein were seeded in 384 well plates 24 hours prior to the experiment. Cells were loaded with the calcium indicator Fluo4AM, washed and loaded in a FLIPR instrument with a compound plate containing increasing doses of acetaminophen in quadruplicates and prepared at 2× of final concentration. Baseline was recorded for 10 seconds, then 25 μl of […] was added onto 25 μl of cells and resulting changes in fluorescence were monitored over an additional 3 minutes. The host cell line overexpressing the G protein but not hT2R54 was treated as described above.
The ability of a test compound that blocks bitter taste elicited through hT2R54 was measured in this assay, as follows. Cells stably expressing hT2R54 and a promiscuous G protein were seeded in 384 well plates 24 hours prior to the experiment. Cells were loaded with the calcium indicator Fluo4AM, washed and loaded in a FLIPR instrument with a compound plate containing increasing doses of acetaminophen in buffer and increasing doses of acetaminophen with depicted fixed concentrations of Cmpd 109 (Table 4). Base line was recorded for 10 seconds, then 25 μl of compound and compound mixtures were added onto 25 μl of cells and resulting changes in fluorescence were monitored over an additional 3 minutes. The concentration of test compound that blocks half of the response when the bitter compound alone is present is presented as the EC50 or IC50 value.
In the examples above, the EC50 of compounds for blocking bitter taste elicited through T2R54 was measured in the same manner.

[1] = other T2R54 bitter blockers (table after b418)
[2] = Table 2, cells stably expressing hT2R54 and a promiscuous G protein

IC50 [2] | Structure (SMILES) | also measured
27 nM | COc1ccc(F)cc1C(=O)N1CCN(CC(=O)Nc2cc3c(cc2C(C)=O)OCO3)CC1 [compound 2, N-(6-Acetylbenzo[d][1,3]dioxol-5-yl)-2-(4-(5-fluoro-2-methoxybenzoyl)piperazin-1-yl)acetamide] | –
15 nM | CCCOC(=O)N1CCN(CC(=O)Nc2cc3c(cc2C(C)=O)OCO3)CC1 [compound 3, Propyl 4-(2-((6-Acetylbenzo[d][1,3]dioxol-5-yl)amino)-2-oxoethyl)piperazine-1-carboxylate] | –
130 nM | CC(=O)c1cc2c(cc1NC(=O)CN1CCN(S(=O)(=O)C(C)C)CC1)OCO2 [compound 5, N-(6-acetylbenzo[d][1,3]dioxol-5-yl)-2-(4-(isopropylsulfonyl)piperazin-1-yl)acetamide] | –
490 nM | COc1cc2c(cc1NC(=O)CN1CCN(C(=O)CC(C)C)CC1)OCO2 [compound 6, N-(6-Methoxybenzo[d][1,3]dioxol-5-yl)-2-(4-(3-methylbutanoyl)piperazin-1-yl)acetamide] | –
50 nM | CCC(=O)N1CCN(CC(=O)Nc2cc3c(cc2C(C)=O)OCO3)CC1 [compound 8] | –
29 nM | CCCC(=O)N1CCN(CC(=O)Nc2cc3c(cc2C(C)=O)OCO3)CC1 [compound 9] | –
24 nM | CC(=O)c1cc2c(cc1NC(=O)CN1CCN(C(=O)CC3CC3)CC1)OCO2 [compound 15] | –
29 nM | CC(=O)c1cc2c(cc1NC(=O)CN1CCN(C(=O)C3CCCC3)CC1)OCO2 [compound 16] | –
150 nM | CC(=O)c1cc2c(cc1NC(=O)CN1CCN(C(=O)C3CCCCC3)CC1)OCO2 [compound 17] | –
216 nM | CC(=O)c1cc2c(cc1NC(=O)CN1CCN(C(=O)CO)CC1)OCO2 [compound 18] | –
18 nM | CC(=O)c1cc2c(cc1NC(=O)CN1CCN(C(=O)C3CCCCO3)CC1)OCO2 (stereo not shown) [compound 23] | –
176 nM | CC(=O)c1cc2c(cc1NC(=O)CN1CCN(C(=O)CN3CCCC3)CC1)OCO2 [compound 27] | –

The next lines start with the compound.

Structure (SMILES) | IC50 [2] | also measured
Cc1cc(N2CCC(C(N)=O)CC2)nc(-c2ccccc2)n1 [A, 1-(6-Methyl-2-phenylpyrimidin-4-yl)piperidine-4-carboxamide] | – | IC50 [1]: 2900 nM
COc1cc2ncnc(NCc3cccc4c3OCO4)c2cc1OC [B] | – | IC50 [1]: 1800 nM
CC(=O)Nc1ccc(O)cc1 [acetaminophen, reference compound] | – | response of hT2R54-expressing cells to bitter tastant (FIG. 1, cells expressing hT2R54, not control host cells): measurable change in intracellular calcium
CC(=O)c1cc2c(cc1NC(=O)CN1CCN(C(=O)NC(C)C)CC1)OCO2 [compound 4, 4-(2-((6-Acetylbenzo[d][1,3]dioxol-5-yl)amino)-2-oxoethyl)-N-isopropylpiperazine-1-carboxamide] | 34 nM | –
CC(=O)c1cc2c(cc1NC(=O)CN1CCN(C(C)=O)CC1)OCO2 [compound 7] | 90 nM | –
CCCCC(=O)N1CCN(CC(=O)Nc2cc3c(cc2C(C)=O)OCO3)CC1 [compound 10] | 9 nM | –
CC(=O)c1cc2c(cc1NC(=O)CN1CCN(C(=O)C(C)C)CC1)OCO2 [compound 11] | 40 nM | –
CC(=O)c1cc2c(cc1NC(=O)CN1CCN(C(=O)C3CC3)CC1)OCO2 [compound 12] | 40 nM | –
CC(=O)c1cc2c(cc1NC(=O)CN1CCN(C(=O)C(C)(C)C)CC1)OCO2 [compound 13] | 23 nM | –
CC(=O)c1cc2c(cc1NC(=O)CN1CCN(C(=O)CC(C)(C)C)CC1)OCO2 [compound 14] | 80 nM | –
COCC(=O)N1CCN(CC(=O)Nc2cc3c(cc2C(C)=O)OCO3)CC1 [compound 19] | 60 nM | –
CC(=O)c1cc2c(cc1NC(=O)CN1CCN(C(=O)COC(C)C)CC1)OCO2 [compound 20] | 170 nM | –
COCCOCC(=O)N1CCN(CC(=O)Nc2cc3c(cc2C(C)=O)OCO3)CC1 [compound 21] | 179 nM | –
CC(=O)c1cc2c(cc1NC(=O)CN1CCN(C(=O)C3CCOCC3)CC1)OCO2 [compound 24] | 336 nM | –
CC(=O)c1cc2c(cc1NC(=O)CN1CCN(C(=O)C3CCN(C)CC3)CC1)OCO2 [compound 25] | 4360 nM | –
CC(=O)c1cc2c(cc1NC(=O)CN1CCN(C(=O)CN3CCOCC3)CC1)OCO2 [compound 28] | 107 nM | –
